How the values were obtained:
Assay type in all cases: functional
[1] = tested on: NCI/ADR-RES; assay: Cytotoxicity against Homo sapiens (human) NCI/ADR-RES cells after 48 hr by SRB assay
[2] = Cytotoxicity against Homo sapiens (human) breast cancer cells assessed as cell growth at 10^-5 M after 48 hr by SRB assay relative to control; settings: Cancer cell lines, read-out: Activity
[3] = tested on: SF-268; assay: Cytotoxicity against Homo sapiens (human) SF268 cells after 48 hr by SRB assay; settings: SF-268, 48 h
[4] = tested on: UACC-257; assay: Cytotoxicity against Homo sapiens (human) UACC257 cells after 48 hr by SRB assay; settings: UACC-257, 48 h
[5] = Cytotoxicity against Homo sapiens (human) colon cancer cells assessed as cell growth at 10^-5 M after 48 hr by SRB assay relative to control; settings: Cancer cell lines, read-out: Activity
[6] = tested on: SW-620; assay: Cytotoxicity against Homo sapiens (human) SW620 cells after 48 hr by SRB assay; settings: SW-620, 48 h
[7] = tested on: CAKI-1; assay: Cytotoxicity against Homo sapiens (human) Caki1 cells after 48 hr by SRB assay; settings: CAKI-1, 48 h
[8] = tested on: ACHN; assay: Cytotoxicity against Homo sapiens (human) ACHN cells after 48 hr by SRB assay
[9] = tested on: OVCAR-8; assay: Cytotoxicity against Homo sapiens (human) OVCAR8 cells after 48 hr by SRB assay; settings: OVCAR-8, 48 h
[10] = tested on: SF-295; assay: Cytotoxicity against Homo sapiens (human) SF295 cells after 48 hr by SRB assay; settings: SF-295, 48 h
[11] = tested on: HT-29; assay: Cytotoxicity against Homo sapiens (human) HT-29 cells after 48 hr by SRB assay; settings: HT-29, 48 h
[12] = tested on: COLO 205; assay: Cytotoxicity against Homo sapiens (human) COLO205 cells after 48 hr by SRB assay; settings: COLO 205, 48 h
[13] = Cytotoxicity against Homo sapiens (human) prostate cancer cells assessed as cell growth at 10^-5 M after 48 hr by SRB assay relative to control; settings: Cancer cell lines, read-out: Activity
[14] = tested on: M14; assay: Cytotoxicity against Homo sapiens (human) M14 cells after 48 hr by SRB assay; settings: M14, 48 h
[15] = tested on: HCT-116; assay: Cytotoxicity against Homo sapiens (human) HCT116 cells after 48 hr by SRB assay; settings: HCT-116, 48 h
[16] = tested on: NCI-H322M; assay: Cytotoxicity against Homo sapiens (human) NCI-H322M cells after 48 hr by SRB assay
[17] = Cytotoxicity against Homo sapiens (human) ovarian cancer cells assessed as cell growth at 10^-5 M after 48 hr by SRB assay relative to control; settings: Cancer cell lines, read-out: Activity
[18] = tested on: OVCAR-5; assay: Cytotoxicity against Homo sapiens (human) OVCAR5 cells after 48 hr by SRB assay; settings: OVCAR-5, 48 h
[19] = tested on: HCT-15; assay: Cytotoxicity against Homo sapiens (human) HCT15 cells after 48 hr by SRB assay; settings: HCT-15, 48 h
[20] = tested on: MDA-MB-468; assay: Cytotoxicity against Homo sapiens (human) MDA-MB-468 cells after 48 hr by SRB assay; settings: MDA-MB-468, 48 h
[21] = tested on: Malme-3M; assay: Cytotoxicity against Homo sapiens (human) MALME-3M cells after 48 hr by SRB assay
[22] = tested on: IGROV-1; assay: Cytotoxicity against Homo sapiens (human) IGROV1 cells after 48 hr by SRB assay; settings: IGROV-1, 48 h
[23] = tested on: SK-MEL-5; assay: Cytotoxicity against Homo sapiens (human) SK-MEL-5 cells after 48 hr by SRB assay; settings: SK-MEL-5, 48 h
[24] = tested on: SF-539; assay: Cytotoxicity against Homo sapiens (human) SF539 cells after 48 hr by SRB assay; settings: SF-539, 48 h
[25] = tested on: EKVX; assay: Cytotoxicity against Homo sapiens (human) EKVX cells after 48 hr by SRB assay
[26] = tested on: HOP-92; assay: Cytotoxicity against Homo sapiens (human) HOP92 cells after 48 hr by SRB assay; settings: HOP-92, 48 h
[27] = tested on: SK-MEL-28; assay: Cytotoxicity against Homo sapiens (human) SK-MEL-28 cells after 48 hr by SRB assay; settings: SK-MEL-28, 48 h
[28] = tested on: SNB-19; assay: Cytotoxicity against Homo sapiens (human) SNB19 cells after 48 hr by SRB assay; settings: SNB-19, 48 h
[29] = tested on: MCF7; assay: Cytotoxicity against Homo sapiens (human) MCF7 cells after 48 hr by SRB assay; settings: MCF7, 48 h
[30] = tested on: NCI-H522; assay: Cytotoxicity against Homo sapiens (human) NCI-H522 cells after 48 hr by SRB assay; settings: NCI-H522, 48 h
[31] = tested on: KM12; assay: Cytotoxicity against Homo sapiens (human) KM12 cells after 48 hr by SRB assay; settings: KM12, 48 h
[32] = tested on: RPMI-8226; assay: Cytotoxicity against Homo sapiens (human) RPMI8226 cells after 48 hr by SRB assay; settings: RPMI-8226, 48 h
[33] = tested on: LOX IMVI; assay: Cytotoxicity against Homo sapiens (human) LOXIMVI cells after 48 hr by SRB assay
[34] = Cytotoxicity against Homo sapiens (human) NSCLC cells assessed as cell growth at 10^-5 M after 48 hr by SRB assay relative to control; settings: read-out: Activity
[35] = tested on: CCRF-CEM; assay: Cytotoxicity against Homo sapiens (human) CCRF-CEM cells after 48 hr by SRB assay
[36] = tested on: PC-3; assay: Cytotoxicity against Homo sapiens (human) PC3 cells after 48 hr by SRB assay; settings: PC-3, 48 h
[37] = tested on: SN12C; assay: Cytotoxicity against Homo sapiens (human) SN12C cells after 48 hr by SRB assay
[38] = tested on: NCI-H23; assay: Cytotoxicity against Homo sapiens (human) NCI-H23 cells after 48 hr by SRB assay; settings: NCI-H23, 48 h
[39] = tested on: K562; assay: Cytotoxicity against Homo sapiens (human) K562 cells after 48 hr by SRB assay; settings: K562, 48 h
[40] = tested on: NCI-H226; assay: Cytotoxicity against Homo sapiens (human) NCI-H226 cells after 48 hr by SRB assay; settings: NCI-H226, 48 h
[41] = tested on: A549; assay: Cytotoxicity against Homo sapiens (human) A549 cells after 48 hr by SRB assay; settings: A549, 48 h
[42] = tested on: MOLT-4; assay: Cytotoxicity against Homo sapiens (human) MOLT4 cells after 48 hr by SRB assay; settings: MOLT-4, 48 h
[43] = tested on: MDA-MB-231; assay: Cytotoxicity against Homo sapiens (human) MDA-MB-231 cells after 48 hr by SRB assay; settings: MDA-MB-231, 48 h
[44] = tested on: HCC 2998; assay: Cytotoxicity against Homo sapiens (human) HCC2998 cells after 48 hr by SRB assay; settings: HCC 2998, 48 h
[45] = Cytotoxicity against Homo sapiens (human) melanoma cells assessed as cell growth at 10^-5 M after 48 hr by SRB assay relative to control; settings: read-out: Activity
[46] = tested on: OVCAR-3; assay: Cytotoxicity against Homo sapiens (human) OVCAR3 cells after 48 hr by SRB assay; settings: OVCAR-3, 48 h

N#Cc1ccc(NC(=O)Nc2nc3ccc(OC(F)(F)F)cc3s2)cc1
GI50 [1]: 1.55 µM
growth at 10 µM [2]: -5.18%
GI50 [3]: 3.09 µM
GI50 [4]: 1.35 µM
growth at 10 µM [5]: -11.2%
GI50 [6]: 1.62 µM
GI50 [7]: 1.58 µM
GI50 [8]: 0.724 µM
GI50 [9]: 2 µM
GI50 [10]: 1.17 µM
GI50 [11]: 2.09 µM
GI50 [12]: 1.7 µM
growth at 10 µM [13]: 13%
GI50 [14]: 2.4 µM
GI50 [15]: 0.55 µM
GI50 [16]: 2.4 µM
growth at 10 µM [17]: 8.95%
GI50 [18]: 4.27 µM
GI50 [19]: 1.38 µM
GI50 [20]: 0.457 µM
GI50 [21]: 0.851 µM
GI50 [22]: 2 µM
GI50 [23]: 1.15 µM
GI50 [24]: 2.88 µM
GI50 [25]: 1.35 µM
GI50 [26]: 0.324 µM
GI50 [27]: 2.29 µM
GI50 [28]: 1.51 µM
GI50 [29]: 1 µM
GI50 [30]: 0.427 µM
GI50 [31]: 1.02 µM
GI50 [32]: 1 µM
GI50 [33]: 1.48 µM
growth at 10 µM [34]: -6.18%
GI50 [35]: 1.51 µM
GI50 [36]: 1.35 µM
GI50 [37]: 1.58 µM
GI50 [38]: 0.575 µM
GI50 [39]: 0.537 µM
GI50 [40]: 2 µM
GI50 [41]: 1.2 µM
GI50 [42]: 1.86 µM
GI50 [43]: 0.933 µM
GI50 [44]: 1.29 µM
growth at 10 µM [45]: -9.77%
GI50 [46]: 0.575 µM

O=C(Nc1ccc(F)cc1)Nc1nc2ccc(OC(F)(F)F)cc2s1
GI50 [1]: 3.39 µM
growth at 10 µM [2]: 19.2%
GI50 [3]: 3.72 µM
GI50 [4]: 3.55 µM
growth at 10 µM [5]: 0.24%
GI50 [6]: 3.72 µM
GI50 [7]: 2.29 µM
GI50 [8]: 2.4 µM
GI50 [9]: 4.27 µM
GI50 [10]: 2.57 µM
GI50 [11]: 3.89 µM
GI50 [12]: 2.09 µM
growth at 10 µM [13]: 12.4%
GI50 [14]: 4.37 µM
GI50 [15]: 2.95 µM
GI50 [16]: 4.47 µM
growth at 10 µM [17]: 12.9%
GI50 [18]: 3.63 µM
GI50 [19]: 3.02 µM
GI50 [20]: 2.34 µM
GI50 [21]: 2.95 µM
GI50 [22]: 3.89 µM
GI50 [23]: 2.45 µM
GI50 [24]: 2.24 µM
GI50 [25]: 2.63 µM
GI50 [26]: 3.89 µM
GI50 [27]: 3.63 µM
GI50 [28]: 3.72 µM
GI50 [29]: 2.14 µM
GI50 [30]: 3.16 µM
GI50 [31]: 2.69 µM
GI50 [32]: 2.51 µM
GI50 [33]: 3.24 µM
growth at 10 µM [34]: 5.63%
GI50 [35]: 3.98 µM
GI50 [36]: 2.82 µM
GI50 [37]: 2.57 µM
GI50 [38]: 2.88 µM
GI50 [39]: 3.55 µM
GI50 [40]: 2.82 µM
GI50 [41]: 3.47 µM
GI50 [42]: 3.09 µM
GI50 [43]: 3.31 µM
GI50 [44]: 3.89 µM
growth at 10 µM [45]: 12%
GI50 [46]: 2.24 µM
